In brackets after ≈: the same amount, converted by molar mass.
Test system: E. coli tolC mutant
Experiment: microbe, parasite or virus in culture
Assay type: cell-based, Escherichia coli
Details: Escherichia coli, read-out: MIC E. coli tolC mutant

| Compound | MIC |
| --- | --- |
| COc1cc(Cc2cnc(N)nc2N)cc(OC)c1OCCCCCn1cc(CNc2ccc([N+](=O)[O-])c3nonc23)nn1 [compound 12c] | 0.5 µg/mL (≈ 0.826 µM) |
| COc1cc(Cc2cnc(N)nc2N)cc(OC)c1OCCCN=[N+]=[N-] [8a] | 0.25 µg/mL (≈ 0.696 µM) |
| COc1cc(Cc2cnc(N)nc2N)cc(OC)c1OCCCCn1cc(CNS(=O)(=O)c2cccc3c(N(C)C)cccc23)nn1 [compound 14b] | 0.5 µg/mL (≈ 0.756 µM) |

Molecular target: T1, E. coli dihydrofolate reductase (eDHFR) (Escherichia coli, UniProt P0ABQ4)
T1 construct: host or cells: cell-free (PURExpress in vitro protein synthesis)
T1 sequence (P0ABQ4 whole entry): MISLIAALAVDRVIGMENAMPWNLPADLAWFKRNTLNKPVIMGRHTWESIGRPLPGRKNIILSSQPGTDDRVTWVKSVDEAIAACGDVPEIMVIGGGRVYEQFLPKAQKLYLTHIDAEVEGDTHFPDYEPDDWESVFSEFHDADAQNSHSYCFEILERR
Experiment: DHFR enzyme inhibition assay
Assay type: biochemical
Details: not given

| Compound | IC50 |
| --- | --- |
| COc1cc(Cc2cnc(N)nc2N)cc(OC)c1OCCCCCn1cc(CNc2ccc([N+](=O)[O-])c3nonc23)nn1 [compound 12c] | 0.208 µM |
| COc1cc(Cc2cnc(N)nc2N)cc(OC)c1OCCCN=[N+]=[N-] [8a] | 0.066 µM |
| COc1cc(Cc2cnc(N)nc2N)cc(OC)c1OCCCCn1cc(CNS(=O)(=O)c2cccc3c(N(C)C)cccc23)nn1 [compound 14b] | 0.226 µM |

Test system: E. coli ATCC 25922
Experiment: MIC determination, E. coli ATCC 25922 (wild type)
Assay type: cell-based, Escherichia coli
Details: E. coli strains of Table 1

| Compound | antimicrobial activity, fold less active than TMP |
| --- | --- |
| COc1cc(Cc2cnc(N)nc2N)cc(OC)c1OCCCN=[N+]=[N-] [8a] | 8–16 fold |

Same assay, conditions: Escherichia coli, ATCC25922, wild type; n = 4; read-out: MIC E. coli ATCC 25922

| Compound | MIC |
| --- | --- |
| COc1cc(Cc2cnc(N)nc2N)cc(OC)c1OCCCCCn1cc(CNc2ccc([N+](=O)[O-])c3nonc23)nn1 [compound 12c] | > 64 µg/mL |
| COc1cc(Cc2cnc(N)nc2N)cc(OC)c1OCCCN=[N+]=[N-] [8a] | 8 µg/mL (≈ 22.3 µM) |
| COc1cc(Cc2cnc(N)nc2N)cc(OC)c1OCCCCn1cc(CNS(=O)(=O)c2cccc3c(N(C)C)cccc23)nn1 [compound 14b] | > 64 µg/mL |

Test system: E. coli DC2 mutant
Experiment: microbe, parasite or virus in culture
Assay type: cell-based
Details: Escherichia coli, DC2MUTANT, read-out: MIC E. coli DC2 mutant

| Compound | MIC |
| --- | --- |
| COc1cc(Cc2cnc(N)nc2N)cc(OC)c1OCCCCCn1cc(CNc2ccc([N+](=O)[O-])c3nonc23)nn1 [compound 12c] | > 64 µg/mL |
| COc1cc(Cc2cnc(N)nc2N)cc(OC)c1OCCCN=[N+]=[N-] [8a] | 4 µg/mL (≈ 11.1 µM) |
| COc1cc(Cc2cnc(N)nc2N)cc(OC)c1OCCCCn1cc(CNS(=O)(=O)c2cccc3c(N(C)C)cccc23)nn1 [compound 14b] | > 64 µg/mL |

Test system: E. coli MB4827
Experiment: MIC determination, E. coli MB4827
Assay type: cell-based
Details: Escherichia coli, n = 4

| Compound | MIC |
| --- | --- |
| COc1cc(Cc2cnc(N)nc2N)cc(OC)c1OCCCCCn1cc(CNc2ccc([N+](=O)[O-])c3nonc23)nn1 [compound 12c] | > 64 µg/mL |
| COc1cc(Cc2cnc(N)nc2N)cc(OC)c1OCCCN=[N+]=[N-] [8a] | 8 µg/mL (≈ 22.3 µM) |
| COc1cc(Cc2cnc(N)nc2N)cc(OC)c1OCCCCn1cc(CNS(=O)(=O)c2cccc3c(N(C)C)cccc23)nn1 [compound 14b] | > 64 µg/mL |

Test system: S. aureus ATCC 25923
Experiment: MIC determination, S. aureus ATCC 25923
Assay type: cell-based
Details: Staphylococcus aureus, ATCC25923, n = 4; read-out: MIC S. aureus ATCC 25923

| Compound | MIC |
| --- | --- |
| COc1cc(Cc2cnc(N)nc2N)cc(OC)c1OCCCCCn1cc(CNc2ccc([N+](=O)[O-])c3nonc23)nn1 [compound 12c] | 8 µg/mL (≈ 13.2 µM) |
| COc1cc(Cc2cnc(N)nc2N)cc(OC)c1OCCCN=[N+]=[N-] [8a] | 4 µg/mL (≈ 11.1 µM) |
| COc1cc(Cc2cnc(N)nc2N)cc(OC)c1OCCCCn1cc(CNS(=O)(=O)c2cccc3c(N(C)C)cccc23)nn1 [compound 14b] | 64 µg/mL (≈ 96.7 µM) |

Test system: E. coli lpxC/tolC mutant
Experiment: microbe, parasite or virus in culture
Assay type: cell-based
Details: Escherichia coli, read-out: MIC E. coli lpxC/tolC mutant

| Compound | MIC |
| --- | --- |
| COc1cc(Cc2cnc(N)nc2N)cc(OC)c1OCCCCCn1cc(CNc2ccc([N+](=O)[O-])c3nonc23)nn1 [compound 12c] | 0.5 µg/mL (≈ 0.826 µM) |
| COc1cc(Cc2cnc(N)nc2N)cc(OC)c1OCCCN=[N+]=[N-] [8a] | 0.25 µg/mL (≈ 0.696 µM) |
| COc1cc(Cc2cnc(N)nc2N)cc(OC)c1OCCCCn1cc(CNS(=O)(=O)c2cccc3c(N(C)C)cccc23)nn1 [compound 14b] | 1 µg/mL (≈ 1.51 µM) |

Test system: not listed separately
Experiment: Cytotoxicity assay (resazurin), HEK 293
Assay type: cell-based
Details: human, HEK293 cells, 20 h incubation, highest concentration 60 μM

| Compound | CC50 at 20 h |
| --- | --- |
| COc1cc(Cc2cnc(N)nc2N)cc(OC)c1OCCCCCn1cc(CNc2ccc([N+](=O)[O-])c3nonc23)nn1 [compound 12c] | 46 µM |
| COc1cc(Cc2cnc(N)nc2N)cc(OC)c1OCCCN=[N+]=[N-] [8a] | > 60 µM |
| COc1cc(Cc2cnc(N)nc2N)cc(OC)c1OCCCCn1cc(CNS(=O)(=O)c2cccc3c(N(C)C)cccc23)nn1 [compound 14b] | 59 µM |

Test system: not listed separately
Experiment: Cytotoxicity assay (resazurin), HepG2
Assay type: cell-based
Details: human, HepG2 cells, 20 h incubation, highest concentration 60 μM

| Compound | CC50 at 20 h |
| --- | --- |
| COc1cc(Cc2cnc(N)nc2N)cc(OC)c1OCCCCCn1cc(CNc2ccc([N+](=O)[O-])c3nonc23)nn1 [compound 12c] | > 60 µM |
| COc1cc(Cc2cnc(N)nc2N)cc(OC)c1OCCCN=[N+]=[N-] [8a] | > 60 µM |
| COc1cc(Cc2cnc(N)nc2N)cc(OC)c1OCCCCn1cc(CNS(=O)(=O)c2cccc3c(N(C)C)cccc23)nn1 [compound 14b] | > 60 µM |

Test system: E. coli lpxC mutant
Experiment: microbe, parasite or virus in culture
Assay type: cell-based
Details: Escherichia coli, read-out: MIC E. coli lpxC mutant

| Compound | MIC |
| --- | --- |
| COc1cc(Cc2cnc(N)nc2N)cc(OC)c1OCCCCCn1cc(CNc2ccc([N+](=O)[O-])c3nonc23)nn1 [compound 12c] | > 64 µg/mL |
| COc1cc(Cc2cnc(N)nc2N)cc(OC)c1OCCCCn1cc(CNS(=O)(=O)c2cccc3c(N(C)C)cccc23)nn1 [compound 14b] | > 64 µg/mL |

Test system: E. coli clin isol
Experiment: MIC determination, E. coli clinical isolate (first column)
Assay type: cell-based
Details: Escherichia coli, n = 4

| Compound | MIC |
| --- | --- |
| COc1cc(Cc2cnc(N)nc2N)cc(OC)c1OCCCCCn1cc(CNc2ccc([N+](=O)[O-])c3nonc23)nn1 [compound 12c] | > 64 µg/mL |
| COc1cc(Cc2cnc(N)nc2N)cc(OC)c1OCCCN=[N+]=[N-] [8a] | 8 µg/mL (≈ 22.3 µM) |
| COc1cc(Cc2cnc(N)nc2N)cc(OC)c1OCCCCn1cc(CNS(=O)(=O)c2cccc3c(N(C)C)cccc23)nn1 [compound 14b] | > 64 µg/mL |

Test system: E. coli clin isol
Experiment: MIC determination, E. coli clinical isolate (second column)
Assay type: cell-based
Details: Escherichia coli, n = 4

| Compound | MIC |
| --- | --- |
| COc1cc(Cc2cnc(N)nc2N)cc(OC)c1OCCCCCn1cc(CNc2ccc([N+](=O)[O-])c3nonc23)nn1 [compound 12c] | > 64 µg/mL |
| COc1cc(Cc2cnc(N)nc2N)cc(OC)c1OCCCN=[N+]=[N-] [8a] | 4 µg/mL (≈ 11.1 µM) |
| COc1cc(Cc2cnc(N)nc2N)cc(OC)c1OCCCCn1cc(CNS(=O)(=O)c2cccc3c(N(C)C)cccc23)nn1 [compound 14b] | > 64 µg/mL |

Reference: PMC5067704 (ACS Infectious Diseases, 2016)
